Experimental data published in US20030134264A1, “Method of preventing darkening of skin or inhibiting melanization of melenin monomer and polymerization inhibitor of biological dihydroxyindole compound” (SHISEIDO COMPANY, LTD., priority 2001, published 2003).

Experiment: Inhibition of melanization of DHICA by ultraviolet rays (absorbance at 405 nm, microplate)
Details: FL-20BLB fluorescent lamp, long wavelength UV, absorbance 405 nm
Experimental: DHICA can be synthesized by a known method. 0.01 to 1.0 mg/ml of DHICA or its sodium salt is dissolved in water or a buffer such as phosphate buffer and 100 to 200 μl amounts distributed into microplate wells. A fluorescent lamp or solar simulator or monochrometer is used to irradiate this with ultraviolet rays for 10 minutes to 3 hours, then the absorbance at 405 nm is measured by a microplate reader to evaluate the amount of black-brown melanin.
0.01 to 1.0 mg/ml of DHICA or its sodium salt is dissolved in water or a buffer such as a phosphate buffer and 100 to 200 μl amounts distributed into microplate wells. Compounds or plant extracts prepared at various concentrations are added in 1 to 100 μl amounts or before addition a fluorescent lamp or solar simulator or monochrometer is used to irradiate this with ultraviolet rays for 10 minutes to 3 hours, then the absorbance of 405 nm is measured by a microplate reader to evaluate the extent of black-brown melanin and evaluate the effect of the compound or plant extract.
The action of an inhibitor containing vitamin C and its derivatives as effective ingredients in inhibiting melanization of DHICA due to ultraviolet rays was evaluated by the following effect of inhibition of melanization of DHICA due to ultraviolet rays.
(§1) 0.01 to 1.0 mg/ml of DHICA or its sodium salt is dissolved in water and 100 μl amounts distributed into microplate wells. 100 μl of ascorbic acid or its derivative adjusted to various concentrations was added and an FL-20BLB fluorescent lamp used to irradiate long wavelength ultraviolet rays. The absorbance at 405 nm was measured by a microplate reader to evaluate the amount of black-brown melanin and evaluate the effect of the compound.
as §1, with “The action of an inhibitor containing 3-O-ethyl ascorbic acid as effective ingredients in inhibiting melanization of DHICA due to ultraviolet rays was evaluated by the following effect of inhibition of melanization of DHICA due to ultraviolet rays. 0.01” for “0.01”, “the extent” for “the amount”

In the case of `CCOC1=C(O)C(=O)O[C@@H]1[C@@H](O)CO` [3-O-ethyl ascorbic acid], the “Rate of inhibition of UV-introduced melanization of DHICA (%)” value (shortened to “Rate of inhibition … (%)”) (sample concentration 0.01%) was 40%, the “Rate of suppression of UV-induced melanization of DHICA (%)” value (“Rate of suppression … (%)” below) (sample concentration 0.01%) was 40% and the “Rate of inhibition … (%)” value (sample concentration 0.1%) was 80%. For the same compound, the “Rate of suppression … (%)” value (sample concentration 0.1%) was 80%.

For `O=C1O[C@H]([C@@H](O)CO)C(O)=C1O[C@H]1O[C@H](CO)[C@@H](O)[C@H](O)[C@H]1O` [AA-2G, Ascorbate-2-O-α-glucoside], the “Rate of inhibition … (%)” value (sample concentration 0.1%) was 20% and the “Rate of suppression … (%)” value (sample concentration 0.1%) was 20%.

In the case of `O=C1O[C@H]([C@@H](O)CO)C([O-])=C1OP(=O)([O-])[O-].O=C1O[C@H]([C@@H](O)CO)C([O-])=C1OP(=O)([O-])[O-].[Mg+2].[Mg+2].[Mg+2]` [APM, Magnesium ascorbate phosphate ester], the “Rate of inhibition … (%)” value (sample concentration 0.1%) was 20%.

In the case of `O=C1O[C@H]([C@@H](O)CO)C(O)=C1O` [Ascorbic acid], the “Rate of inhibition … (%)” value (sample concentration 0.1%) was 70% and the “Rate of suppression … (%)” value (sample concentration 0.1%) was 70%.
